Each structure is given as a SMILES string. Counter-ions that a name gives are not always drawn.

One data set concerns Hep3B. The experiment in a line: WST-8 cell viability assay, single agent in vitro toxicity. The format is cell-based. As to conditions: Homo sapiens, 72 hours of incubation, media containing 0.5% DMSO, read-out: IC50 Values of Each Drug per HCC Cell Line. The method, then:
(§1) Growth inhibition by the base drugs used in this study was evaluated on three different hepatoma cell lines—two human HCC lines and one rat cell line—using a 2-(2-methoxy-4-nitrophenyl)-3-(4-nitrophenyl)-5-(2,4-disulfophenyl)-2H-tetrazolium monosodium salt (WST-8) cell viability assay (Dojindo Molecular Technologies, Inc., Rockville, MD). Human cell lines Hep3B and HepG2 were obtained from ATCC (Manassas, VA) and cultured in EMEM cell culture medium (ATCC) supplemented with 10% fetal bovine serum (FBS). The rat hepatoma line McA-RH7777 was generously donated by the Larson Lab (Northwestern University, IL). This line was cultured in DMEM cell culture medium (ATCC) supplemented with 10% FBS. All lines were grown at 37° C. in a humidified atmosphere of 5% CO2.
(§2) To prevent precipitation of the drugs, media containing 0.5% DMSO was used throughout all the studies. Doubling times of the cell lines were similar; therefore, cells were plated at the same density of 7,000 cells per well in 96-well plates for 24 hours. Media was removed, cells were washed with PBS, and treatment was applied. Drug concentrations were varied to include data points ranging from non-toxic to highly toxic. Following 72 hours of incubation, the media was removed and cell viability was quantified using the WST-8 assay with a SpectraMax M2 spectrophotometer (Molecular Devices, Sunnyvale, CA).
(§3) Each experiment was performed with N=6, assessing viability at 10 different drug concentrations. Relative cell viability was calculated by normalizing against the UV absorbance of untreated cells. GraphPad Prism was used to plot relative cell viability as a function of log drug concentration with a non-linear least-squares regression analysis and calculation of IC50 values.
Background: Formazan colour is commonly taken as a measure of viable cells.

Another data set has as its system human HCC HepG2 cells. The description is as above. The format is cell-based. As to conditions: 72 hours of incubation, media containing 0.5% DMSO, read-out: IC50 Values of Each Drug per HCC Cell Line. The protocol: as §1, §2, §3
Data set [1] relates to rat hepatoma line McA-RH7777. The description is as above. The format is cell-based. As to conditions: 72 hours of incubation, media containing 0.5% DMSO, read-out: IC50 Values of Each Drug per HCC Cell Line. The method, then:
as §1, §2, §3

The nature of data set [2]: In vitro drug release from 9% SELP-815K gels (RP-HPLC). As to conditions: for cumulative release of sorafenib: 9% SELP-815K, 14-day release. In kind it is physicochemical. The protocol:
(§4) SELP-815K formulations were prepared at 12% w/w in 1× phosphate buffered saline (PBS). Powder drugs were milled for 12 hours to reduce crystal size and variability using a custom built ball mill. Milled samples were inspected microscopically to verify homogeneity. Two methods of drug incorporation were investigated. […] Drug loading concentration was chosen based on manufacturer specified loading of doxorubicin in DEBs. The same loading was used for sorafenib.
(§5) For dual drugs, drug loading was 12.5 mg/mL for each drug, for a total drug loading of 25 mg/mL. Samples were chilled on ice until tested. Samples incorporating powder drug in 12% w/w SELP-815K were prepared without dilution; however, the volume addition of the powdered drug was not considered in the calculation of the SELP concentration. Samples with powdered drug were tested at 25 and 50 mg/mL for single drug loaded samples and 25 mg/mL per drug for dual drug loaded samples.
The drug loaded SELP solutions were drawn into 0.5 cd insulin syringes and incubated overnight at 37° C. followed by cutting into gel disks as previously described. Weights were recorded. Individual gels were placed into 8 dram glass vials, to which 25 mL of release media consisting of 1×PBS, 1% SDS was added. The elution volume was chosen to ensure sink conditions and complete dissolution of both drugs, if all drug eluted immediately.
At predetermined time points of 1 hour, 3 hours, 6 hours, 12 hours, 1 day, 3 days, 5 days, 7 days, 10 days, 14 days, and 20 and 30 days for extended-release studies, a sample volume was removed for analysis and replaced with fresh media. Vials were sealed and maintained in a shaking incubator at 37° C., 120 rpm. The 9% SELP-815K gels underwent release testing for 14 days. The 12% SELP-815K gels were tested for 30 days.
Drug content in the release media was detected by reverse phase high performance liquid chromatography (RP-HPLC; Agilent Technologies, Santa Clara, CA) using a RPC18 X-Terra column (4.6×250 mm, 5 µm particle size; Waters, Milford, MA) and a guard column of the same packing material. The elution gradient at time zero began with mobile phase of 40% 20 mM ammonium acetate and 60% acetonitrile (CAN), which increased to 72% CAN over 9 minutes at a flow rate of 1 mL/min. Percent cumulative release was calculated using the experimental drug loading per disk based on the pre-release weight.

Data set [3] is described as follows: In vitro drug release from 12% SELP-815K gels (RP-HPLC). In kind it is physicochemical. As to conditions: day 30. The protocol: as §5
The drug loaded SELP solutions were drawn into 0.5 cd insulin syringes and incubated overnight at 37° C. followed by cutting into gel disks as previously described. Weights were recorded. Individual gels were placed into 8 dram glass vials, to which 25 mL of release media consisting of 1×PBS, 1% SDS was added. The elution volume was chosen to ensure sink conditions and complete dissolution of both drugs, if all drug eluted immediately. […]
Drug content in the release media was detected by reverse phase high performance liquid chromatography (RP-HPLC; Agilent Technologies, Santa Clara, CA) using a RPC18 X-Terra column (4.6×250 mm, 5 µm particle size; Waters, Milford, MA) and a guard column of the same packing material. […] Percent cumulative release was calculated using the experimental drug loading per disk based on the pre-release weight.

Data set [4] can be described thus: Rheological characterization of drug loaded 9% SELP-815K. In kind it is physicochemical. As to conditions: SELP solution with dox HCl, as drug powder or DMSO solution, 25 mg/mL. The protocol:
as §4, §5
An AR 550 stress-controlled rheometer from TA Instruments (New Castle, DE) was used for rheological testing. A cone-and-plate configuration equipped with a stainless steel 20 mm diameter, 4 degree geometry was used. An oscillation procedure with a temperature ramp from 18° C. to 37° C. […]

Consider `COc1cccc2c1C(=O)c1c(O)c3c(c(O)c1C2=O)C[C@@](O)(C(=O)CO)C[C@@H]3O[C@H]1C[C@H](N)[C@H](O)[C@H](C)O1` [Doxorubicin], for which the IC50 came to 0.29 ± 0.04 µM in the data set on Hep3B, 0.62 ± 0.41 µM with human HCC HepG2 cells and 0.48 ± 0.32 µM in data set [1]. Besides, the “loaded doxorubicin released in the first day” value in data set [2] (9% SELP-815K gels, base form, in DMSO or powder, first day) was “More than 50%”. In addition, the “loaded doxorubicin released by day 14” value in data set [2] (9% SELP-815K gels, base form, day 14) was “nearly all of the loaded drug released”. Further, in data set [3] (25 mg/mL single drug loaded and dual drug loaded gels), the “total drug content of doxorubicin released (cumulative release)” value was 30%. Further, the “cumulative release of doxorubicin” value in data set [3] (50 mg/mL single drug loaded gel) was found to be 15%.
Take `CNC(=O)c1cc(Oc2ccc(NC(=O)Nc3ccc(Cl)c(C(F)(F)F)c3)cc2)ccn1` [Sorafenib]: the IC50 with Hep3B amounted to 3.47 ± 0.2 µM; with human HCC HepG2 cells, 1.72 ± 0.7 µM; in data set [1] it was 6.88 ± 0.83 µM. The “cumulative release of sorafenib” value in data set [2] (DMSO dissolved drug, dual drug loaded gels (12.5 mg/mL each drug)) was 95%; in data set [2] (DMSO dissolved drug, single drug loaded gel (25 mg/mL)) it was “less than 60%”; in data set [2] (powder drug, dual drug loaded gel (12.5 mg/mL each drug)), 22%; in data set [2] (powder drug, single drug loaded gel (25 mg/mL)), 8.7%.
For the compound `COc1cccc2c1C(=O)c1c(O)c3c(c(O)c1C2=O)C[C@@](O)(C(=O)CO)C[C@@H]3O[C@H]1C[C@H](N)[C@H](O)[C@H](C)O1` [dox HCl, doxorubicin hydrochloride], in data set [4], the “viscosity relative to the SELP control with no drug” value is listed as “more than 2 fold”.

The IC50 is the concentration that inhibits the measured activity by half.

The record behind these values is US12702674B2, “Methods for producing chemoembolic agents for the delivery of anti-cancer agents” (University of Utah Research Foundation, priority 2017, dated 2026).
